Drawing on PubChem BioAssay AID588773 (The Scripps Research Institute Molecular Screening Center, 2011), this text covers outcome and inhibition for nine compounds.

Calls of active or inactive are those of the source.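 Rule for the calls: active = inhibition of plasma PAF acetylhydrolase at a set limit or more at 0.1 µM, with tenfold selectivity over all off-targets; inactive = inhibition below the limit or weaker selectivity.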

The target in assay [1] is Monoglyceride lipase (Mus musculus) (UniProt O35678). The experiment in a line: pPAFAH inhibition and serine hydrolase selectivity, late-stage follow-up, selectivity assay for pPAFAH inhibitor project, biochemical, gel-based, FP-Rh fluorescence, mouse, HTS hit compounds (AID 588773). As to conditions: gel-based competitive ABPP, proteome, MAGL; for inhibition: stronger effect = higher value.

The next assay concerns LYPLA1. The assay is described as above. As to conditions: gel-based competitive ABPP, proteome, at 10 µM.
Another assay relates to LYPLA2. Described as above. The settings on record: gel-based competitive ABPP, proteome, at 10 µM.
Assay [2] addresses Platelet-activating factor acetylhydrolase (Mus musculus) (UniProt Q60963). The description is as above. As to conditions: gel-based competitive ABPP, proteome, pPAFAH, stronger effect = higher value.
A further assay relates to ABHD6. Described as above. The settings on record: gel-based competitive ABPP, proteome; for inhibition: stronger effect = higher value.
Another assay concerns ABHD3. The assay is described as above. As to conditions: gel-based competitive ABPP, proteome, at 10 µM.
A further assay concerns the target ABHD4 (UniProt Q8VD66). The description is as above. The settings on record: gel-based competitive ABPP, proteome, at 10 µM.
In a further assay the test system is FAAH. The description is as above. As to conditions: gel-based competitive ABPP, proteome, stronger effect = higher value.
Test in assay [3]: as above
The settings on record: gel-based competitive ABPP, proteome, MW 30 kDa protein, stronger effect = higher value.

Chain of Platelet-activating factor acetylhydrolase (Mus musculus) (Q60963 whole entry, looked up): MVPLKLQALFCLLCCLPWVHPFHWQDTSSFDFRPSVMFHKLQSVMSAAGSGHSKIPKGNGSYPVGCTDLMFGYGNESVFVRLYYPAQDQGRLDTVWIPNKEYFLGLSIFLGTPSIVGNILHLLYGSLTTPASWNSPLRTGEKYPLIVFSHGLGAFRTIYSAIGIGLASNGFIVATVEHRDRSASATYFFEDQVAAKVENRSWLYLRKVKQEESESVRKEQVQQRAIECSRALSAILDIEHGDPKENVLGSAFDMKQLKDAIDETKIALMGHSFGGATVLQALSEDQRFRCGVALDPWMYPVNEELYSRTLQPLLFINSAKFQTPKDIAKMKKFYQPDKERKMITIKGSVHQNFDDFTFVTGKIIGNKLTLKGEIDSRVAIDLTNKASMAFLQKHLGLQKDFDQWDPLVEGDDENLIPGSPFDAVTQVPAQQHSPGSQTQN
Chain of ABHD4 (Q8VD66 whole entry, looked up): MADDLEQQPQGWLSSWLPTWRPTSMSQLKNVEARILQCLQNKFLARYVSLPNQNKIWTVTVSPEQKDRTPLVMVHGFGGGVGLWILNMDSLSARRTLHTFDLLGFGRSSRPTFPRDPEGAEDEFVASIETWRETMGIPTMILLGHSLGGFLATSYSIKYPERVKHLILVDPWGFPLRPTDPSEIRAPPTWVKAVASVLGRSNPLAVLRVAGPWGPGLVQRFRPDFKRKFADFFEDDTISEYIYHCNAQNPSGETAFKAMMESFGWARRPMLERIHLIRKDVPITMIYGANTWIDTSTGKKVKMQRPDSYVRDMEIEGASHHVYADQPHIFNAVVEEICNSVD
Chain of Monoglyceride lipase (Mus musculus) (O35678 whole entry, looked up): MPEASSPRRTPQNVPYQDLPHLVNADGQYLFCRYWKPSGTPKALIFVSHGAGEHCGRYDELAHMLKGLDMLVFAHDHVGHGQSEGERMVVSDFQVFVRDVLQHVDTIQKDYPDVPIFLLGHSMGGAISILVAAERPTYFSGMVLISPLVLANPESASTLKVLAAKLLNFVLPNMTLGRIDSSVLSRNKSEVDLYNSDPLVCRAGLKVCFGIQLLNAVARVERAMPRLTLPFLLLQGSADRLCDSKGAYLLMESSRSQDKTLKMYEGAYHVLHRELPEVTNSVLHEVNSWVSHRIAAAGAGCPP

As a reminder, the inhibition is the percentage by which the read-out fell short of the control. Turning to `O=C(/C=C/c1cccs1)c1cc(Br)ccc1OC(=O)N1CCOCC1`, the result (in assay [1] (at 10 µM); with LYPLA1; with LYPLA2; with ABHD6 (at 10 µM); with ABHD3; at ABHD4) was inactive. The inhibition in assay [2] (at 10 µM) is 75% (inactive); in assay [2] (inhibition, at 1 µM), 56%; in the assay on FAAH (at 10 µM), 61% (inactive); with FAAH (inhibition, at 1 µM) it was 18%.
Turning to `O=C(Oc1ccc(-c2ccccc2)cc1)N1CCOCC1`, the inhibition in assay [1] (at 10 µM) is 20% (inactive); in [1] (inhibition, at 1 µM), 6%; in assay [3] (at 0.1 µM), 21%; in [3] (at 1 µM), 27%; in assay [2] (at 10 µM), 94% (inactive); in assay [2] (inhibition, at 0.1 µM) it was 32%. The inhibition is 78% in [2] (inhibition, at 1 µM); 25% (inactive) with ABHD6 (at 10 µM); 12% in the assay on ABHD6 (inhibition, at 0.1 µM); 16% with ABHD6 (inhibition, at 1 µM); 83% (inactive) in the assay on FAAH (at 10 µM); 23% in the assay on FAAH (inhibition, at 0.1 µM). For the same compound, the inhibition in the assay with FAAH (inhibition, at 1 µM) came out at 31%. Further, the result with LYPLA1, with LYPLA2, in the assay with ABHD3 and at ABHD4 was inactive.
On to `CCCCOC(=O)c1ccc(OC(=O)N2CCOCC2)cc1`, for which the outcome (in assay [1] (at 10 µM); with LYPLA1; in the assay with LYPLA2; in the assay with ABHD3; at ABHD4) was inactive. In addition, the inhibition was 90% (inactive) in [2] (at 10 µM); 5% in [2] (inhibition, at 0.1 µM); 70% in assay [2] (inhibition, at 1 µM); 22% (inactive) in the assay with ABHD6 (at 10 µM); 9% with ABHD6 (inhibition, at 1 µM); 62% (inactive) in the assay with FAAH (at 10 µM). The compound also yielded an inhibition in the assay with FAAH (inhibition, at 1 µM) of 30%.
Take `O=C(Oc1nsnc1N1CCOCC1)N1CCOCC1`: the outcome (in assay [1] (at 10 µM); with LYPLA1; in the assay with LYPLA2; in the assay on ABHD3; at ABHD4) was inactive. Moreover, the inhibition is 4% in assay [3] (at 0.1 µM); 23% in assay [3] (at 1 µM); 86% (inactive) in assay [2] (at 10 µM); 28% in [2] (inhibition, at 1 µM); 39% (inactive) with ABHD6 (at 10 µM); 29% with ABHD6 (inhibition, at 1 µM). Moreover, the inhibition with FAAH (at 10 µM) was 85% (inactive); with FAAH (inhibition, at 1 µM), 80%.
Take `CN(C)C(=O)Oc1noc2cc(Cl)ccc12`: the inhibition in assay [1] (at 10 µM) was 33% (inactive); in [1] (inhibition, at 1 µM), 2%; in assay [3] (at 1 µM), 6%; in assay [2] (at 10 µM), 100% (inactive); in assay [2] (inhibition, at 0.1 µM), 47%; in [2] (inhibition, at 1 µM) it was 92%. In addition, the inhibition with ABHD6 (at 10 µM) was 65% (inactive); with ABHD6 (inhibition, at 0.1 µM) it was 21%; with ABHD6 (inhibition, at 1 µM), 26%; in the assay on FAAH (at 10 µM) it was 100%; in the assay with FAAH (inhibition, at 0.1 µM), 100%; in the assay on FAAH (inhibition, at 1 µM), 100%. Moreover, the outcome in the assay on LYPLA1, with LYPLA2, with ABHD3 and at ABHD4 was inactive.
On to `O=C(Oc1ccc(Oc2ccccc2)cc1)N1CCC(O)CC1`, for which the outcome (in assay [1] (at 10 µM); with LYPLA1; with LYPLA2; with ABHD3; on ABHD4) was inactive. In addition, the inhibition in assay [2] (at 10 µM) is 92% (inactive); in assay [2] (inhibition, at 1 µM), 62%; in the assay on ABHD6 (at 10 µM), 39% (inactive); in the assay with ABHD6 (inhibition, at 1 µM), 19%; in the assay on FAAH (at 10 µM), 17% (inactive); in the assay with FAAH (inhibition, at 1 µM), 2%.
Turning to `O=C(Oc1ccc([N+](=O)[O-])cc1)N1CCC(N2CCCCC2)CC1`, the inhibition in assay [1] (at 10 µM) is 45% (inactive); in assay [1] (inhibition, at 1 µM), 23%; in assay [3] (at 1 µM), 22%; in assay [2] (at 10 µM) it was 92% (inactive); in [2] (inhibition, at 1 µM), 66%; in the assay on ABHD6 (at 10 µM), 48% (inactive). Moreover, the inhibition in the assay on ABHD6 (inhibition, at 1 µM) is 22%; in the assay with FAAH (at 10 µM), 60% (inactive); in the assay with FAAH (inhibition, at 1 µM), 30%. Besides, the result in the assay on LYPLA1, in the assay with LYPLA2, in the assay on ABHD3 and at ABHD4 was inactive.
For the compound `O=C(Oc1ccc(-c2ccccc2)cc1)N1CCCCC1`, the inhibition is 40% (inactive) in assay [1] (at 10 µM); 36% in [1] (inhibition, at 1 µM); 18% in [3] (at 0.1 µM); 60% in assay [3] (at 1 µM); 95% (inactive) in [2] (at 10 µM); 35% in assay [2] (inhibition, at 0.1 µM). In addition, the inhibition in assay [2] (inhibition, at 1 µM) was 33%; with ABHD6 (at 10 µM), 53% (inactive); in the assay on ABHD6 (inhibition, at 1 µM), 34%; with FAAH (at 10 µM), 99% (inactive); in the assay on FAAH (inhibition, at 1 µM), 56%. Besides, the result in the assay with LYPLA1, in the assay with LYPLA2, in the assay on ABHD3 and on ABHD4 was inactive.
As for `O=C(CCCSc1ccc(Cl)cc1)Nc1cc(S(=O)(=O)N2CCOCC2)ccc1O`, the inhibition is 27% (inactive) in [1] (at 10 µM); 88% (inactive) in assay [2] (at 10 µM); 18% in assay [2] (inhibition, at 0.1 µM); 50% in [2] (inhibition, at 1 µM); 26% (inactive) with ABHD6 (at 10 µM); 25% (inactive) with FAAH (at 10 µM). Further, the result in the assay with LYPLA1, in the assay on LYPLA2, in the assay with ABHD3 and on ABHD4 was inactive.
